In patent US9982007B2, “Cocrystals of progesterone” (AMRI SSCI, LLC, priority 2012, dated 2018):

Assay: Powder dissolution
Format: physicochemical
Conditions: compared to commercially available progesterone

progesterone:vanillic acid [Cocrystal 1]
dissolution rate: increase in dissolution rate
progesterone concentration over time: sustained progesterone concentration over time
